Measurements: publication PMC6248945, “Antibacterial properties of the pituitary adenylate cyclase-activating polypeptide: A new human antimicrobial peptide” (PLoS ONE, 2018)
≈ marks a conversion by molar mass, not a printed value. Like-named read-outs stand apart in the source and are kept apart here. Where a SMILES comes first, the peptide text is derived from it. [ ]: non-standard residue; d: D form. Tic = O=C(O)[C@@H]1Cc2ccccc2CN1

Key:
[1] = tested on: Bacillus subtilis (2597); details: 2597, 20 h
[2] = tested on: Serratia marcescens (ATCC14756); details: ATCC14756, 20 h
[3] = tested on: Bacillus amyloliquefaciens (LMG22478); details: LMG22478, 20 h
[4] = tested on: Burkholderia cenocepacia (K56-2); details: 20 h
[5] = tested on: Escherichia coli ATCC25922; details: ATCC25922, 20 h
[6] = relative to PACAP38; cited from earlier work
[7] = tested on: Pseudomonas fluorescens (MF37); details: 20 h
[8] = tested on: Escherichia coli (JM109); test: MIC, CLSI microdilution; format: cell-based; details: MHB, 37 °C, 20h, OD read-out, at least triplicate
Protocol: Assays were performed according to the CLSI microdilution method. Briefly, the bacterial strains were inoculated and allowed to reach an OD600 of 0.08–0.13 prior to dilution to 10^6 CFU/mL in Mueller-Hinton broth (MHB). A bacterial suspension (50 μL) was then added to each well of a 96-well microplate containing serially diluted peptide solutions (50 μL in MHB) and incubated at 37 °C for 20h. A well containing sterilized medium was used as a sterility control and another well containing no added peptide served as a growth control.

[9] = tested on: DPP-IV; design: method as in PMID 18353507; details: cited from earlier work
[10] = tested on: Bacillus circulans (LSPQ3543); details: 20 h
[11] = tested on: Escherichia coli (O157 :H7); details: CLSI microdilution, MHB, 37 °C, 20h, OD read-out; at least triplicate
[12] = tested on: Staphylococcus aureus (Newman); details: 20 h
[13] = tested on: Pseudomonas aeruginosa (ATCC33350-Sero-2); details: ATCC33350, 20 h
[14] = tested on: Staphylococcus aureus (ATCC6538#P); details: ATCC6538, 20 h
[15] = tested on: Burkholderia thailendensis (ATCC700388); details: CLSI microdilution, MHB, 37 °C, 20h, OD read-out; at least triplicate
[16] = tested on: Actinobacillus pleuropneumoniae (4074); details: 20 h
[17] = tested on: Pseudomonas putida (KT2440)
[18] = tested on: Bacillus velezensis; details: 20 h
[19] = tested on: Burkholderia cenocepacia (CEP0511 Gvar3b); details: CLSI microdilution, MHB, 37 °C, 20h, OD read-out; at least triplicate
[20] = tested on: Burkholderia cenocepacia (J2315); details: 20 h
[21] = tested on: Burkholderia cenocepacia (LMG18829); details: LMG18829, 20 h
[22] = tested on: Bacillus cereus (ATCC11778); details: ATCC11778, 20 h
[23] = tested on: Pseudomonas aeruginosa (PA14); details: PA14, 20 h
[24] = tested on: Bacillus subtilis (PY79); details: PY79, 20 h
[25] = tested on: Burkholderia cenocepacia (LMG19240); details: CLSI microdilution, MHB, 37 °C, 20h, OD read-out; at least triplicate

CC[C@H](C)[C@H](NC(=O)CNC(=O)[C@H](CC(=O)O)NC(=O)[C@H](CO)NC(=O)[C@@H](N)Cc1c[nH]cn1)C(=O)N[C@@H](Cc1ccccc1)C(=O)N[C@H](C(=O)N[C@@H](CC(=O)O)C(=O)N[C@@H](CO)C(=O)N[C@@H](Cc1ccc(O)cc1)C(=O)N[C@@H](CO)C(=O)N[C@@H](CCCNC(=N)N)C(=O)N[C@@H](Cc1ccc(O)cc1)C(=O)N[C@@H](C)C(=O)N[C@@H](CCCCN)C(=O)N[C@@H](CCC(N)=O)C(=O)N[C@@H](CCSC)C(=O)N[C@@H](C)C(=O)N[C@H](C(=O)N[C@@H](C)C(=O)N[C@@H](CCCCN)C(=O)N[C@@H](Cc1ccc(O)cc1)C(=O)N[C@@H](CC(C)C)C(=O)N[C@@H](C)C(=O)N[C@@H](C)C(=O)N[C@H](C(=O)N[C@@H](CC(C)C)C(=O)NCC(=O)N[C@@H](CCCCN)C(=O)N[C@@H](CCCNC(=N)N)C(=O)N[C@@H](Cc1ccc(O)cc1)C(=O)N[C@@H](CCCCN)C(=O)N[C@@H](CCC(N)=O)C(=O)N[C@@H](CCCNC(=N)N)C(=O)N[C@H](C(=O)N[C@@H](CCCCN)C(=O)N[C@@H](CC(N)=O)C(=O)N[C@@H](CCCCN)C(N)=O)C(C)C)C(C)C)C(C)C)[C@@H](C)O [compound 6, [Ala^14,20]PACAP38] (H-HSDGIFTDSYSRYAKQMAVAKYLAAVLGKRYKQRVKNK-NH2)
MIC, Bacillus subtilis (2597) [1]: 187 µg/mL (≈ 42.6 µM) | MIC, Serratia marcescens (ATCC14756) [2]: >200 µg/mL | MIC, Bacillus amyloliquefaciens [3]: 9 µg/mL (≈ 2.05 µM) | MIC, Burkholderia cenocepacia (K56-2) [4]: >200 µg/mL | MIC, Escherichia coli ATCC25922 [5]: >200 µg/mL | Metabolic stability in human plasma [6]: improved metabolic stability | MIC, Pseudomonas fluorescens (MF37) [7]: >200 µg/mL | MIC, Escherichia coli (JM109) [8]: 37 µg/mL (≈ 8.42 µM) | Metabolic stability against DPP-IV [9]: improved metabolic stability | MIC, Bacillus circulans (LSPQ3543) [10]: 94 µg/mL (≈ 21.4 µM) | MIC, Escherichia coli (O157 :H7) [11]: 113 µg/mL (≈ 25.7 µM) | MIC, Staphylococcus aureus (Newman) [12]: >200 µg/mL | MIC, Pseudomonas aeruginosa (ATCC33350-Sero-2) [13]: >200 µg/mL | MIC, Staphylococcus aureus (ATCC6538#P) [14]: >200 µg/mL | MIC, Burkholderia thailendensis (ATCC700388) [15]: >200 µg/mL | MIC, Actinobacillus pleuropneumoniae [16]: >200 µg/mL | MIC, Pseudomonas putida (KT2440) ([17]; CLSI microdilution, MHB, 37 °C, 20h, OD read-out, at least triplicate): 113 µg/mL (≈ 25.7 µM) | MIC, Bacillus velezensis [18]: 52 µg/mL (≈ 11.8 µM) | MIC, Burkholderia cenocepacia (CEP0511 Gvar3b) [19]: >200 µg/mL | MIC, Burkholderia cenocepacia (J2315) [20]: 8 µg/mL (≈ 1.82 µM) | MIC, Burkholderia cenocepacia (LMG18829) [21]: >200 µg/mL | MIC, Bacillus cereus (ATCC11778) [22]: >200 µg/mL | MIC, Pseudomonas aeruginosa (PA14) [23]: >200 µg/mL | MIC, Bacillus subtilis (PY79) [24]: 3.5 µg/mL (≈ 0.797 µM) | MIC, Burkholderia cenocepacia (LMG19240) [25]: >200 µg/mL

CC[C@H](C)[C@H](NC(=O)CNC(=O)[C@H](CC(=O)O)NC(=O)[C@H](CO)NC(=O)[C@@H](N)Cc1c[nH]cn1)C(=O)N1Cc2ccccc2C[C@H]1C(=O)N[C@H](C(=O)N[C@@H](CC(=O)O)C(=O)N[C@@H](CO)C(=O)N[C@@H](Cc1ccc(O)cc1)C(=O)N[C@@H](CO)C(=O)N[C@@H](CCCNC(=N)N)C(=O)N[C@@H](Cc1ccc(O)cc1)C(=O)N[C@@H](CCCNC(=N)N)C(=O)N[C@@H](CCCCN)C(=O)N[C@@H](CCC(N)=O)C(=O)N[C@@H](CCSC)C(=O)N[C@@H](C)C(=O)N[C@H](C(=O)N[C@@H](CCCCN)C(=O)N[C@@H](CCCCN)C(=O)N[C@@H](Cc1ccc(O)cc1)C(=O)N[C@@H](CC(C)C)C(=O)N[C@@H](C)C(=O)N[C@@H](C)C(=O)N[C@H](C(=O)N[C@@H](CC(C)C)C(=O)NCC(=O)N[C@@H](CCCCN)C(=O)N[C@@H](CCCNC(=N)N)C(=O)N[C@@H](Cc1ccc(O)cc1)C(=O)N[C@@H](CCCCN)C(=O)N[C@@H](CCC(N)=O)C(=O)N[C@@H](CCCNC(=N)N)C(=O)N[C@H](C(=O)N[C@@H](CCCCN)C(=O)N[C@@H](CC(N)=O)C(=O)N[C@@H](CCCCN)C(N)=O)C(C)C)C(C)C)C(C)C)[C@@H](C)O [compound 7, [Tic^6]PACAP38] (H-HSDGI[Tic]TDSYSRYRKQMAVKKYLAAVLGKRYKQRVKNK-NH2)
MIC, Bacillus subtilis (2597) [1]: >200 µg/mL | MIC, Serratia marcescens (ATCC14756) [2]: >200 µg/mL | MIC, Bacillus amyloliquefaciens [3]: 21 µg/mL (≈ 4.62 µM) | MIC, Burkholderia cenocepacia (K56-2) [4]: >200 µg/mL | MIC, Escherichia coli ATCC25922 [5]: >200 µg/mL | MIC, Pseudomonas fluorescens (MF37) [7]: >200 µg/mL | MIC, Escherichia coli (JM109) [8]: >200 µg/mL | MIC, Bacillus circulans (LSPQ3543) [10]: 6 µg/mL (≈ 1.32 µM) | MIC, Escherichia coli (O157 :H7) [11]: >200 µg/mL | MIC, Staphylococcus aureus (Newman) [12]: >200 µg/mL | MIC, Pseudomonas aeruginosa (ATCC33350-Sero-2) [13]: >200 µg/mL | MIC, Staphylococcus aureus (ATCC6538#P) [14]: >200 µg/mL | MIC, Burkholderia thailendensis (ATCC700388) [15]: >200 µg/mL | MIC, Actinobacillus pleuropneumoniae [16]: >200 µg/mL | MIC, Pseudomonas putida (KT2440) ([17]; 20 h): 33 µg/mL (≈ 7.26 µM) | MIC, Bacillus velezensis [18]: 71 µg/mL (≈ 15.6 µM) | MIC, Burkholderia cenocepacia (CEP0511 Gvar3b) [19]: >200 µg/mL | MIC, Burkholderia cenocepacia (J2315) [20]: 2 µg/mL (≈ 0.44 µM) | MIC, Burkholderia cenocepacia (LMG18829) [21]: >200 µg/mL | MIC, Bacillus cereus (ATCC11778) [22]: >200 µg/mL | MIC, Pseudomonas aeruginosa (PA14) [23]: >200 µg/mL | MIC, Bacillus subtilis (PY79) [24]: 7 µg/mL (≈ 1.54 µM) | MIC, Burkholderia cenocepacia (LMG19240) [25]: >200 µg/mL

CSCC[C@H](NC(=O)[C@H](CCC(N)=O)NC(=O)[C@H](CCCCN)NC(=O)[C@H](CCCNC(=N)N)NC(=O)[C@H](Cc1ccc(O)cc1)NC(=O)[C@H](CCCNC(=N)N)NC(=O)[C@H](CO)NC(=O)[C@H](Cc1ccc(O)cc1)NC(=O)[C@@H](N)CO)C(=O)N[C@@H](C)C(=O)N[C@H](C(=O)N[C@@H](CCCCN)C(=O)N[C@@H](CCCCN)C(=O)N[C@@H](Cc1ccc(O)cc1)C(=O)N[C@@H](CC(C)C)C(=O)N[C@@H](C)C(=O)N[C@@H](C)C(=O)N[C@H](C(=O)N[C@@H](CC(C)C)C(=O)NCC(=O)N[C@@H](CCCCN)C(=O)N[C@@H](CCCNC(=N)N)C(=O)N[C@@H](Cc1ccc(O)cc1)C(=O)N[C@@H](CCCCN)C(=O)N[C@@H](CCC(N)=O)C(=O)N[C@@H](CCCNC(=N)N)C(=O)N[C@H](C(=O)N[C@@H](CCCCN)C(=O)N[C@@H](CC(N)=O)C(=O)N[C@@H](CCCCN)C(N)=O)C(C)C)C(C)C)C(C)C [compound 10, PACAP(9–38)] (H-SYSRYRKQMAVKKYLAAVLGKRYKQRVKNK-NH2)
MIC, Bacillus subtilis (2597) [1]: >183 µg/mL | MIC, Bacillus amyloliquefaciens [3]: >183 µg/mL | MIC, Burkholderia cenocepacia (K56-2) [4]: >183 µg/mL | MIC, Escherichia coli (JM109) [8]: >183 µg/mL | MIC, Actinobacillus pleuropneumoniae [16]: >183 µg/mL | MIC, Pseudomonas putida (KT2440) ([17]; 20 h): >183 µg/mL | MIC, Burkholderia cenocepacia (J2315) [20]: 19 µg/mL (≈ 5.19 µM) | MIC, Bacillus subtilis (PY79) [24]: >183 µg/mL
